# Assay results as given in patent US20230067910A1, “NOVEL COMPOUNDS FOR THE DIAGNOSIS, TREATMENT AND PREVENTION OF DISEASES ASSOCIATED WITH THE AGGREGATION OF ALPHA-SYNUCLEIN” (MODAG GMBH, priority 2019, published 2023).
# Biological target: T1, alpha-synuclein (sonicated fibrils) (Homo sapiens, UniProt P37840)
# T1 construct: made in house; host or cells: E. coli
# Assay: Modified competition binding assay, protocol 3b, reference ligand [3H]-compound 2
# Settings: Table 5, reference ligand [3H]-compound 2 (1 nM)
# Method: Alpha-synuclein and tau46 were purified from E. coli according to established protocols (Nuscher B, et al., J. Biol. Chem., 2004; 279(21):21966-75), Aβ1-42 was obtained from rPeptide, Watkinsville, Ga., USA. Fibrils were prepared by aggregation of recombinant protein via constant agitation. In detail, 70 μM of alpha-synuclein mixed with 100 mM NaCl in 50 mM Tris, pH 7.0+0.02% NaN3 were incubated at 1,400 rpm, 37° C. for 96 h. 10 μM of tau46 were incubated with 0.03 mg/ml heparin in 50 mM Tris, pH=7.0 at 1,000 rpm, 37° C. for 72 h. Aβ1-42 was solved in 20 mM NaPi, pH=8.0+0.2 mM EDTA+0.02% NaN3 (Deeg A A, et al., Biochim. Biophys. Acta, 2015; 1850(9): 1884-90; Goedert M, et al. Nature, 1996; 383(6600): 550-3).
# For competition binding experiments, a fixed concentration of recombinant αSYN fibrils (sonicated, 15 nM/well) was incubated with 1 nM [^3H]-compound 1 or [3H]-compound 2 and decreasing concentrations of a serial dilution of non-labeled competitor (serial dilution 1:4 or 1:3.5 or 1:3 providing the concentration ranges of non-labeled competitor 1 μM-[…] 1 μM-4 nM or 1 μM-[…], respectively) in 30 mM Tris-HCl, 10% ethanol, 0.05% Tween20, pH 7.4 in a total volume of 200 μL/well. Plates were incubated for 4.5 hours at RT covered by removable sealing tape (PerkinElmer, Waltham, Mass., USA).
# Filtration and readout were performed as described for saturation binding assays. [^3H]-labeled ligand binding [in CMP] was plotted against increasing competitor concentrations and data points were fitted using non-linear regression analysis to calculate the IC50 and Ki values (GraphPad Software, Inc., Version 7.03, La Jolla (Calif.), USA). In the competition binding assay with sonicated recombinant αSYN fibrils, the calculation of Ki values was done based on KD values of 0.6 nM and 0.2 nM for compound 1 and compound 2, respectively.
# The fibril competition assay provides Ki values. Ki is a quantitative measure that represents the concentration of the non-radioactive tested compound (competitor ligand) required to replace 50% of a reference compound, in this case [H]-compound 1 (1 nM) or [H]-compound 2 (1 nM), which is bound to the target structures (1 nM), in our case recombinant alpha-synuclein and tau46 fibrils. This assay is suitable for a screening of non-radioactive ligands.
row,Molecule,Ki
1,"Fc1cc(-c2cc(-c3ccc(N4CCNCC4)cc3)n[nH]2)ccn1 [Compound 49, 1-{4-[5-(2-fluoropyridin-4-yl)-1H-pyrazol-3-yl]phenyl}piperazine]",61 nM
2,"CN1CCN(c2ccc(-c3cc(-c4ccnc(Br)c4)[nH]n3)cc2)CC1 [Compound 26, 1-{4-[5-(2-bromopyridin-4-yl)-1H-pyrazol-3-yl]phenyl}-4-methylpiperazine]",1 nM
3,"CN(C)c1ccc(-c2cc(-c3ccnc(Cl)c3)[nH]n2)cc1 [Compound 53, 4-[5-(2-chloropyridin-4-yl)-1H-pyrazol-3-yl]-N,N-dimethylaniline]",0.8 nM
4,"CN(C)c1ccc(-c2c[nH]c(-c3ccnc(Br)c3)n2)cc1 [Compound 31, 4-[2-(2-bromopyridin-4-yl)-1H-imidazol-4-yl]-N,N-dimethylaniline]",13 nM
5,"CNc1ccc(-c2cc(-c3cncc(Cl)n3)[nH]n2)cc1 [Compound 36, 4-[5-(6-chloropyrazin-2-yl)-1H-pyrazol-3-yl]-N-methylaniline]",12 nM
6,"CN(C)c1ccc(-c2cc(-c3cc(Cl)ncn3)[nH]n2)cc1 [Compound 43, 4-[5-(6-chloropyrimidin-4-yl)-1H-pyrazol-3-yl]-N,N-dimethylaniline]",0.5 nM
7,"FCCN1CCN(c2ccc(-c3cc(-c4ccnc(Cl)c4)[nH]n3)cc2)CC1 [Compound 50, 1-{4-[5-(2-chloropyridin-4-yl)-1H-pyrazol-3-yl]phenyl}-4-(2-fluoroethyl)piperazine]",0.9 nM
8,"FC1CN(c2ccc(-c3cc(-c4ccnc(Cl)c4)[nH]n3)cc2)C1 [Compound 55, 2-chloro-4-{3-[4-(3-fluoroazetidin-1-yl)phenyl]-1H-pyrazol-5-yl}pyridine]",1.2 nM
9,"CNc1ccc(-c2cc(-c3cc(C)nc(Br)c3)[nH]n2)cc1 [Compound 38, 4-[5-(2-bromo-6-methylpyridin-4-yl)-1H-pyrazol-3-yl]-N-methylaniline]",113 nM
10,"CNc1ccc(-c2cc(-c3cnnc(Cl)c3)[nH]n2)cc1 [Compound 39, 4-[5-(6-chloropyridazin-4-yl)-1H-pyrazol-3-yl]-N-methylaniline]",4.2 nM
11,"CNc1ccc(-c2cc(-c3cc(Br)nc(Br)c3)[nH]n2)cc1 [Compound 37, 4-[5-(2,6-dibromopyridin-4-yl)-1H-pyrazol-3-yl]-N-methylaniline]",16 nM
12,"Brc1cc(-c2c[nH]c(-c3ccc4c(c3)OCO4)n2)ccn1 [Compound 29, 4-[2-(1,3-benzodioxol-5-yl)-1H-imidazol-4-yl]-2-bromopyridine]",6.3 nM
13,"6-[5-(2-bromopyridin-4-yl)-1H-pyrazol-3-yl]-1,3-dioxolo[4,5-b]pyridine [Compound 32]",18 nM
14,"Cc1cc(-c2cc(-c3ccc4c(c3)OCO4)n[nH]2)cc(Br)n1 [Compound 47, 4-[3-(1,3-benzodioxol-5-yl)-1H-pyrazol-5-yl]-2-bromo-6-methylpyridine]",97 nM
15,"CNc1ccc(-c2cc(-c3ccnc(Cl)n3)[nH]n2)cc1 [Compound 40, 4-[5-(2-chloropyrimidin-4-yl)-1H-pyrazol-3-yl]-N-methylaniline]",3.9 nM
16,"CNc1ccc(-c2cc(-c3ccnc(F)c3)[nH]n2)cc1 [Compound 24, 4-[5-(2-fluoropyridin-4-yl)-1H-pyrazol-3-yl]-N-methylaniline]",0.8 nM
17,"Fc1ccnc(-c2cc(-c3ccc4c(c3)OCO4)n[nH]2)c1 [Compound 54, 2-[3-(1,3-benzodioxol-5-yl)-1H-pyrazol-5-yl]-4-fluoropyridine]",8.4 nM
18,"CNc1ccc(-c2cc(-c3cccc(Cl)n3)[nH]n2)cc1 [Compound 41, 4-[5-(6-chloropyridin-2-yl)-1H-pyrazol-3-yl]-N-methylaniline]",14 nM
19,"[2H]C([2H])([2H])Nc1ccc(-c2cc(-c3ccnc(Br)c3)[nH]n2)cc1 [Compound 21, 4-[5-(2-bromopyridin-4-yl)-1H-pyrazol-3-yl]-N-(^2H3)methylaniline]",0.3 nM

# The remaining molecules from weak to strong by Ki, led by results:
row,Ki,Molecule
1,168 nM,"Clc1cc(-c2nc(-c3ccc(N4CCCC4)cc3)c[nH]2)ccn1 [Compound 35, 2-chloro-4-{4-[4-(pyrrolidin-1-yl)phenyl]-1H-imidazol-2-yl}pyridine]"
2,59 nM,"Clc1cc(-c2cc(-c3ccc4c(c3)OCO4)n[nH]2)c(Cl)nn1 [Compound 48, 4-[5-(1,3-benzodioxol-5-yl)-1H-pyrazol-3-yl]-3,6-dichloropyridazine]"
3,41 nM,"Brc1cccc(-c2cc(-c3cnc4c(c3)OCO4)n[nH]2)c1 [Compound 34, 6-[5-(3-bromophenyl)-1H-pyrazol-3-yl]-1,3-dioxolo[4,5-b]pyridine]"
4,33 nM,"Brc1cc(-c2nc(-c3ccc4c(c3)OCO4)c[nH]2)ccn1 [Compound 33, 4-[4-(1,3-benzodioxol-5-yl)-1H-imidazol-2-yl]-2-bromopyridine]"
5,23 nM,"4-[5-(2,6-dichloropyridin-4-yl)-1H-pyrazol-3-yl]-N,N-dimethylaniline [Compound 42]"
6,12 nM,"Brc1cc(-c2nc(-c3ccc4c(c3)OCO4)n[nH]2)ccn1 [Compound 30, 4-[3-(1,3-benzodioxol-5-yl)-1H-1,2,4-triazol-5-yl]-2-bromopyridine]"
7,4.2 nM,"Clc1c(-c2ccc3c(c2)OCO3)n[nH]c1-c1ccnc(Br)c1 [Compound 28, 4-[3-(1,3-benzodioxol-5-yl)-4-chloro-1H-pyrazol-5-yl]-2-bromopyridine]"
8,3.1 nM,"FC1CCN(c2ccc(-c3cc(-c4ccnc(Br)c4)[nH]n3)cc2)CC1 [Compound 52, 2-bromo-4-{3-[4-(4-fluoropiperidin-1-yl)phenyl]-1H-pyrazol-5-yl}pyridine]"
9,2.7 nM,"COCCN1CCN(c2ccc(-c3cc(-c4ccnc(Br)c4)[nH]n3)cc2)CC1 [Compound 51, 1-{4-[5-(2-bromopyridin-4-yl)-1H-pyrazol-3-yl]phenyl}-4-(2-methoxyethyl)piperazine]"
10,1.3 nM,"Fc1cc(-c2cc(-c3ccc(N4CCOCC4)cc3)n[nH]2)ccn1 [Compound 27, 4-{4-[5-(2-fluoropyridin-4-yl)-1H-pyrazol-3-yl]phenyl}morpholine]"
11,0.7 nM,"FCCNc1ccc(-c2cc(-c3ccnc(Br)c3)[nH]n2)cc1 [Compound 25, 4-[5-(2-bromopyridin-4-yl)-1H-pyrazol-3-yl]-N-(2-fluoroethyl)aniline]"
12,0.6 nM,"CN(C)c1ccc(-c2nc(-c3ccnc(Br)c3)n[nH]2)cc1 [Compound 44, 4-[3-(2-bromopyridin-4-yl)-1H-1,2,4-triazol-5-yl]-N,N-dimethylaniline]"
13,0.5 nM,"CCNc1ccc(-c2cc(-c3ccnc(Br)c3)[nH]n2)cc1 [Compound 23, 4-[5-(2-bromopyridin-4-yl)-1H-pyrazol-3-yl]-N-ethylaniline]"
14,0.3 nM,"CNc1ccc(-c2cc(-c3ccnc(Cl)c3)[nH]n2)cc1 [Compound 22, 4-[5-(2-chloropyridin-4-yl)-1H-pyrazol-3-yl]-N-methylaniline]"
15,0.2 nM,"CN(C)c1ccc(-c2nc(-c3ccnc(Br)c3)c[nH]2)cc1 [Compound 45, 4-[4-(2-bromopyridin-4-yl)-1H-imidazol-2-yl]-N,N-dimethylaniline]"
